Laboratory results from ChEMBL document CHEMBL1148679, “A novel iNOS and COX-2 inhibitor from the aerial parts of Rodgersia podophylla” (2006).

Legend:
Conditions in all cases: Mus musculus
RAW264.7 [1] = test: Decrease in iNOS level in LPS-activated Raw 264.7 cells; type: functional, cell-based
RAW264.7 [2] = test: Inhibition of COX2 expression in LPS-activated Raw 264.7 cells at 3 uM; type: functional
RAW264.7 [3] = test: Decrease in COX2 level in LPS-activated Raw 264.7 cells; type: functional, cell-based
RAW264.7 [4] = test: Inhibition of iNOS expression in LPS-activated Raw 264.7 cells at 2 uM; type: functional

Structure (SMILES): C/C=C/c1ccc(Oc2ccc(O)cc2)c(C(C)CO)c1 (centres undefined) [RODGERSINOL]
- Activity (RAW264.7 [1]): Dose-dependent effect
- inhibition at 3 µM (RAW264.7 [2]): 50%
- Activity (RAW264.7 [3]): Dose-dependent effect
- inhibition at 2 µM (RAW264.7 [4]): 50%
